Experiment [1] concerns the target T1, Prostaglandin G/H synthase 2 (Homo sapiens, UniProt P35354).
T1 sequence (P35354 whole entry): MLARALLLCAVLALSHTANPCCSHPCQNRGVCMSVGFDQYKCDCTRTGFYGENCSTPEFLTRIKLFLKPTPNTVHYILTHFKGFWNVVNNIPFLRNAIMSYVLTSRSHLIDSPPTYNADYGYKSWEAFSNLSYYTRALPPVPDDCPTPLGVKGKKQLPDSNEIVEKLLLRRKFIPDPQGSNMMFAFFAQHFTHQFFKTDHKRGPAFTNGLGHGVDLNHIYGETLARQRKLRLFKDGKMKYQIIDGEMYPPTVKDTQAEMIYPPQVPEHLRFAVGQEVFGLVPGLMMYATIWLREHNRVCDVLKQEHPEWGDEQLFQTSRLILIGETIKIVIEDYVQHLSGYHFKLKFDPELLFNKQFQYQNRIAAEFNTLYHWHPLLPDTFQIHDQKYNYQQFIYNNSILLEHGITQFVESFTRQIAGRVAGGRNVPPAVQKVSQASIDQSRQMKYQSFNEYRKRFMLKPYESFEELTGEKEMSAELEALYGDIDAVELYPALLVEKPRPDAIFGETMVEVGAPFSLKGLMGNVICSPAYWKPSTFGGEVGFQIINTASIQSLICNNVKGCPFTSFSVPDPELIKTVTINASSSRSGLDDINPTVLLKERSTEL
Briefly: Inhibition of cyclooxygenase-2.

Experiment [2] concerns the target Prostaglandin G/H synthase 1 (Homo sapiens, UniProt P23219). The experiment is described as follows: Inhibition of cyclooxygenase-1.

IC50 data for one molecule are collected here from BindingDB's records for doi:10.1016/j.ejmech.2007.04.019 (The Hebrew University of Jerusalem, 2008).

The IC50 is the midpoint of a concentration-inhibition curve.

Prostaglandin G/H synthase 1, sequence (P23219 whole entry): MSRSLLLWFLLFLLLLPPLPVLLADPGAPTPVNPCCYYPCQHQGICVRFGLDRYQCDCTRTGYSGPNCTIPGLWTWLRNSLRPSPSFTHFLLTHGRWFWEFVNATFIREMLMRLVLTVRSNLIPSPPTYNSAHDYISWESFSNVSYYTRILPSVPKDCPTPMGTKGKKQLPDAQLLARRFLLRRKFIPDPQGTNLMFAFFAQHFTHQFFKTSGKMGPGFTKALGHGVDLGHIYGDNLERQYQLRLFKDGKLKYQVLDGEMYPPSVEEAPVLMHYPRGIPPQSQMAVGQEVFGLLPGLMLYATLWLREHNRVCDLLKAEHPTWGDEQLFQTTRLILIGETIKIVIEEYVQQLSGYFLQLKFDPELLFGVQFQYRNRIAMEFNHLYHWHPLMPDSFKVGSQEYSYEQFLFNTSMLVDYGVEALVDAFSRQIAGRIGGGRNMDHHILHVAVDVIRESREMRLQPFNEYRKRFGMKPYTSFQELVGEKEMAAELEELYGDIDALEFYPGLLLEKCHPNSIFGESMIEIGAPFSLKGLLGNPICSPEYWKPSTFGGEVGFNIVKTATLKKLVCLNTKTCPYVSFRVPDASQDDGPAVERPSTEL

Turning to `C=C[C@@H]1[C@@H](O)C[C@@H]2[C@]3(CC[C@]4(C)[C@@H]([C@H](C)CCC(OO)C(=C)C)CC[C@@]24C)C[C@]13CCC(=O)OC` (some centres not stated), the IC50 was determined as 4.7 µM in experiment [1] and 43.7 µM in experiment [2].
